Patent publication US12624044B2, “SMARCA degraders and uses thereof” (Kymera Therapeutics, Inc., priority 2019, dated 2026)

Target: SMARCA2 (Homo sapiens, UniProt P51531)
Assay: MSD SMARCA2 degradation in NCI-H1299 cell line (24 h)
Format: cell-based
Design: HC: NCI-H1299 cells treated with DMSO; host or cells: NCI-H1299
Settings: for Dmax: NCI-H1299, NCI-H1299 cells; for DC50: NCI-H1299 cells, read-out: SMARCA2 MSD H1299 degradation 24 h: External Abs-DC50
Method in brief: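 SMARCA2 measured by MSD electrochemiluminescence (primary 0.3 ug/ml, secondary 1 ug/ml) on lysates from NCI-H1299 cells exposed to compounds for 24 h across nine 3-fold dilutions. Signal scaled from A2780 cells (no SMARCA2) to DMSO-treated H1299 controls, and maximal degradation after 24 h reported in letter categories.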

SMARCA2, sequence (P51531 whole entry): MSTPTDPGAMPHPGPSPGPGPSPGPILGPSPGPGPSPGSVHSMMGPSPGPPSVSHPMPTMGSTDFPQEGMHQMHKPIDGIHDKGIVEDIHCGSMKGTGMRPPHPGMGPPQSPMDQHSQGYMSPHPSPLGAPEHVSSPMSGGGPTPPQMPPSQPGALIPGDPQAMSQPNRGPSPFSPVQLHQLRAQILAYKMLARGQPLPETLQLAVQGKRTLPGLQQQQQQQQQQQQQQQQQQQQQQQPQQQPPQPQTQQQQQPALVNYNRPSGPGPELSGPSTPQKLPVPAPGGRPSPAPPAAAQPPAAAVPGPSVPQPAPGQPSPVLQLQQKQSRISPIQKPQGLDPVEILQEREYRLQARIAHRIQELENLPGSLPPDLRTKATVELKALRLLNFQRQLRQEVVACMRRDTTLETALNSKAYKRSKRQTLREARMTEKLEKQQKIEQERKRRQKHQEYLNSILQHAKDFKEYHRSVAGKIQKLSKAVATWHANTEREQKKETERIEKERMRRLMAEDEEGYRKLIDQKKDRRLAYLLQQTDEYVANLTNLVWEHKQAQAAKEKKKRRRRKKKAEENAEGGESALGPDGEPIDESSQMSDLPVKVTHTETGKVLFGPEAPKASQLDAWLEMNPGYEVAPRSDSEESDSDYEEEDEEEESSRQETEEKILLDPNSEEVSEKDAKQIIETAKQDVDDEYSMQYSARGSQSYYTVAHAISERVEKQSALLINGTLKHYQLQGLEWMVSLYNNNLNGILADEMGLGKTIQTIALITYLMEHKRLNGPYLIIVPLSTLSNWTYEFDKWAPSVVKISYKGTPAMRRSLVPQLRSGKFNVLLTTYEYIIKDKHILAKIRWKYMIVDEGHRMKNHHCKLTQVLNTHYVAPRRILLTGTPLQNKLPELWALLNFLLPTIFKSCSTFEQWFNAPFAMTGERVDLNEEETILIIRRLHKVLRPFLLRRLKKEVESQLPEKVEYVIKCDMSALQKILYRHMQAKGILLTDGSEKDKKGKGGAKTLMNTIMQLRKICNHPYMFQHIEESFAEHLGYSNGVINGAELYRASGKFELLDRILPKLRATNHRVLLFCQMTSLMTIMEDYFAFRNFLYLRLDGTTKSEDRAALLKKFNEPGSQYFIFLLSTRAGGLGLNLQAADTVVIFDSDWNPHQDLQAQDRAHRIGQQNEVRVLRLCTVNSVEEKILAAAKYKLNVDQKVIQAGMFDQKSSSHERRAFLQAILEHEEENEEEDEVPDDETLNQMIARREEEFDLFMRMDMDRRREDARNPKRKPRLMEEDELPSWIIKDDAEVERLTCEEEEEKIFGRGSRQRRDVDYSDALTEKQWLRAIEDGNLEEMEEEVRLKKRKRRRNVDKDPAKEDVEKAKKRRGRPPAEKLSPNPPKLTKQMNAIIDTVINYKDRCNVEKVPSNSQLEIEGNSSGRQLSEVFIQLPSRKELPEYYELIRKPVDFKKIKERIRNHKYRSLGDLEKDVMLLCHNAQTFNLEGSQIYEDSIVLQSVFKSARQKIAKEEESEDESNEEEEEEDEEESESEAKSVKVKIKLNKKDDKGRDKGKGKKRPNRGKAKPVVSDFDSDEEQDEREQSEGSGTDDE

| SMILES | Dmax [%] | DC50 [nM] |
| --- | --- | --- |
| Cn1c(=O)n(C2CCC(=O)NC2=O)c2cccc(CCCN3CCC(Cn4cc(-c5cc(-c6ccccc6O)nnc5N)cn4)CC3)c21 (stereo not drawn) [I-194] | > 90 | < 100 |
| CN(CC#Cc1cnc(N2C3CCC2CN(c2cc(-c4ccccc4O)nnc2N)C3)nc1)CCCc1ccc2c(c1)n(C)c(=O)n2C1CCC(=O)NC1=O (stereo not drawn) [I-195, 3-[5-[3-[3-[2-[3-[3-amino-6-(2-hydroxyphenyl)pyridazin-4-yl]-3,8-diazabicyclo[3.2.1]octan-8-yl]pyrimidin-5-yl]prop-2-ynyl-methyl-amino]propyl]-3-methyl-2-oxo-benzimidazol-1-yl]piperidine-2,6-dione] | > 90 | < 100 |
| Cn1c(=O)n(C2CCC(=O)NC2=O)c2ccc(CN3CCC(c4cnc(N5C6CCC5CN(c5cc(-c7ccccc7O)nnc5N)C6)nc4)CC3)cc21 (stereo not drawn) [I-196] | > 90 | < 100 |
| CN[C@@H](C)C(=O)N[C@H](C(=O)N1CCC[C@H]1c1nc(C(=O)c2cccc(OCCOCCOCCNCc3ccc(-c4cc(-c5ccccc5O)nnc4N)cc3)c2)cs1)C1CCCCC1 [I-198, (S)—N—((S)-2-((S)-2-(4-(3-(2-(2-(2-((4-(3-amino-6-(2-hydroxyphenyl)pyridazin-4-yl)benzyl)amino)ethoxy)ethoxy)ethoxy)benzoyl)thiazol-2-yl)pyrrolidin-1-yl)-1-cyclohexyl-2-oxoethyl)-2-(methylamino)propanamide] | 50 to 70 | > 1000 |
| CN[C@@H](C)C(=O)N[C@H](C(=O)N1Cc2cc(OCCOCCOCCOCCNC(=O)CCCOc3cccc(N4C[C@H]5C[C@@H]4CN5/C=C/C(=O)c4ccccc4O)n3)ccc2C[C@H]1C(=O)N[C@@H]1CCCc2ccccc21)C(C)(C)C [I-199] |  | > 1000 |
| CN[C@@H](C)C(=O)N[C@H](C(=O)N1Cc2cc(OCCOCCOCCNC(=O)CCCOc3cccc(N4C[C@H]5C[C@@H]4CN5/C=C/C(=O)c4ccccc4O)n3)ccc2C[C@H]1C(=O)N[C@@H]1CCCc2ccccc21)C(C)(C)C [I-200] |  | > 1000 |
| Cc1ncsc1-c1ccc(CNC(=O)[C@@H]2C[C@@H](O)CN2C(=O)[C@@H](NC(=O)COCCOCCOCCOCCNC(=O)CCCOc2cccc(N3C[C@H]4C[C@@H]3CN4/C=C/C(=O)c3ccccc3O)n2)C(C)(C)C)cc1 [I-201] |  | > 1000 |
| CN[C@@H](C)C(=O)N[C@H](C(=O)N1Cc2cc(OCCOCCOCCOCCOCCOCCNC(=O)CCCCCCCCOc3ccnc(N4C[C@H]5C[C@@H]4CN5/C=C/C(=O)c4ccccc4O)c3)ccc2C[C@H]1C(=O)N[C@@H]1CCCc2ccccc21)C(C)(C)C [I-202] |  | > 1000 |
| CN[C@@H](C)C(=O)N[C@H](C(=O)N1Cc2cc(OCCOCCOCCOCCOCCNC(=O)CCCCCCCCOc3ccnc(N4C[C@H]5C[C@@H]4CN5/C=C/C(=O)c4ccccc4O)c3)ccc2C[C@H]1C(=O)N[C@@H]1CCCc2ccccc21)C(C)(C)C [I-203] |  | > 1000 |
| CN[C@@H](C)C(=O)N[C@H](C(=O)N1Cc2cc(OCCOCCOCCOCCNC(=O)CCCCCCCCOc3ccnc(N4C[C@H]5C[C@@H]4CN5/C=C/C(=O)c4ccccc4O)c3)ccc2C[C@H]1C(=O)N[C@@H]1CCCc2ccccc21)C(C)(C)C [I-204] |  | > 1000 |
| CN[C@@H](C)C(=O)N[C@H](C(=O)N1Cc2cc(OCCOCCOCCNC(=O)CCCCCCCCOc3ccnc(N4C[C@H]5C[C@@H]4CN5/C=C/C(=O)c4ccccc4O)c3)ccc2C[C@H]1C(=O)N[C@@H]1CCCc2ccccc21)C(C)(C)C [I-205] |  | > 1000 |
| CN[C@@H](C)C(=O)N[C@H](C(=O)N1Cc2cc(OCCOCCOCCOCCOCCOCCNC(=O)c3ccc(C(C)n4cc(-c5cc(-c6ccccc6O)nnc5N)cn4)cc3)ccc2C[C@H]1C(=O)N[C@@H]1CCCc2ccccc21)C(C)(C)C (stereo partly drawn) [I-206] |  | > 1000 |
| CN[C@@H](C)C(=O)N[C@H](C(=O)N1Cc2cc(OCCOCCOCCOCCOCCNC(=O)c3ccc(C(C)n4cc(-c5cc(-c6ccccc6O)nnc5N)cn4)cc3)ccc2C[C@H]1C(=O)N[C@@H]1CCCc2ccccc21)C(C)(C)C (stereo partly drawn) [I-207] |  | > 1000 |
| CN[C@@H](C)C(=O)N[C@H](C(=O)N1Cc2cc(OCCOCCOCCOCCNC(=O)c3ccc(C(C)n4cc(-c5cc(-c6ccccc6O)nnc5N)cn4)cc3)ccc2C[C@H]1C(=O)N[C@@H]1CCCc2ccccc21)C(C)(C)C (stereo partly drawn) [I-208] |  | > 1000 |
| CN[C@@H](C)C(=O)N[C@H](C(=O)N1Cc2cc(OCCOCCOCCNC(=O)c3ccc(C(C)n4cc(-c5cc(-c6ccccc6O)nnc5N)cn4)cc3)ccc2C[C@H]1C(=O)N[C@@H]1CCCc2ccccc21)C(C)(C)C (stereo partly drawn) [I-209] |  | > 1000 |
| Cc1ncsc1-c1ccc(CNC(=O)[C@@H]2C[C@@H](O)CN2C(=O)[C@@H](NC(=O)CCCCCN2CCC(c3cnc(N4C5CCC4CN(c4cc(-c6ccccc6O)nnc4N)C5)nc3)CC2)C(C)(C)C)cc1 [I-210, (2S,4R)-1-[(2S)-2-[6-[4-[2-[3-[3-amino-6-(2-hydroxyphenyl)pyridazin-4-yl]-3,8-diazabicyclo[3.2.1]octan-8-yl]pyrimidin-5-yl]-1-piperidyl]hexanoylamino]-3,3-dimethyl-butanoyl]-4-hydroxy-N-[[4-(4-methylthiazol-5-yl)phenyl]methyl]pyrrolidine-2-carboxamide] | > 90 | 501 to 1000 |
| Cc1ncsc1-c1ccc(CNC(=O)[C@@H]2C[C@@H](O)CN2C(=O)[C@@H](NC(=O)CN2CCC(c3cnc(N4C5CCC4CN(c4cc(-c6ccccc6O)nnc4N)C5)nc3)CC2)C(C)(C)C)cc1 [I-211, (2S,4R)-1-[(2S)-2-[[2-[4-[2-[3-[3-amino-6-(2-hydroxyphenyl)pyridazin-4-yl]-3,8-diazabicyclo[3.2.1]octan-8-yl]pyrimidin-5-yl]-1-piperidyl]acetyl]amino]-3,3-dimethyl-butanoyl]-4-hydroxy-N-[[4-(4-methylthiazol-5-yl)phenyl]methyl]pyrrolidine-2-carboxamide] | > 90 | 100 to 500 |
| Cc1ncsc1-c1ccc(CNC(=O)[C@@H]2C[C@@H](O)CN2C(=O)[C@@H](NC(=O)CCCCCN(C)Cc2ccc(N3CCN(c4cc(-c5ccccc5O)nnc4N)CC3)cc2)C(C)(C)C)cc1 [I-212, (2S,4R)-1-[(2S)-2-[6-[[4-[4-[3-amino-6-(2-hydroxyphenyl)pyridazin-4-yl]piperazin-1-yl]phenyl]methyl-methyl-amino]hexanoylamino]-3,3-dimethyl-butanoyl]-4-hydroxy-N-[[4-(4-methylthiazol-5-yl)phenyl]methyl]pyrrolidine-2-carboxamide] | < 50 | > 1000 |
| Cc1ncsc1-c1ccc(CNC(=O)[C@@H]2C[C@@H](O)CN2C(=O)[C@@H](NC(=O)CCCCCCCCCN(C)Cc2ccc(N3CCN(c4cc(-c5ccccc5O)nnc4N)CC3)cc2)C(C)(C)C)cc1 [I-213] | 70 to 90 | 501 to 1000 |
| Cc1ncsc1-c1ccc(CNC(=O)[C@@H]2C[C@@H](O)CN2C(=O)[C@@H](NC(=O)CCCCCCCCCN2CCC(Cn3cc(-c4cc(-c5ccccc5O)nnc4N)cn3)CC2)C(C)(C)C)cc1 [I-214] | > 90 | 501 to 1000 |
| Cc1ncsc1-c1ccc(CNC(=O)[C@@H]2C[C@@H](O)CN2C(=O)[C@@H](NC(=O)CCCCCN2CCC(Cn3cc(-c4cc(-c5ccccc5O)nnc4N)cn3)CC2)C(C)(C)C)cc1 [I-215, (2S,4R)-1-((S)-2-(6-(4-((4-(3-amino-6-(2-hydroxyphenyl)pyridazin-4-yl)-1H-pyrazol-1-yl)methyl)piperidin-1-yl)hexanamido)-3,3-dimethylbutanoyl)-4-hydroxy-N-(4-(4-methylthiazol-5-yl)benzyl)pyrrolidine-2-carboxamide] | < 50 | > 1000 |
| Cc1ncsc1-c1ccc(CNC(=O)[C@@H]2C[C@@H](O)CN2C(=O)[C@@H](NC(=O)CCCCCCCN(C)Cc2ccc(N3CCN(c4cc(-c5ccccc5O)nnc4N)CC3)cc2)C(C)(C)C)cc1 [I-216] | 70 to 90 | 501 to 1000 |
| Cc1ncsc1-c1ccc(CNC(=O)[C@@H]2C[C@@H](O)CN2C(=O)[C@@H](NC(=O)CCCCCCCN2CCC(Cn3cc(-c4cc(-c5ccccc5O)nnc4N)cn3)CC2)C(C)(C)C)cc1 [I-217] | > 90 | > 1000 |
| Cc1ncsc1-c1ccc(CNC(=O)[C@@H]2C[C@@H](O)CN2C(=O)[C@@H](NC(=O)COCCOCCOCCNC(=O)CCCOc2cccc(N3C[C@H]4C[C@@H]3CN4/C=C/C(=O)c3ccccc3O)n2)C(C)(C)C)cc1 [I-218] |  | > 1000 |
| Cc1ncsc1-c1ccc(CNC(=O)[C@@H]2C[C@@H](O)CN2C(=O)[C@@H](NC(=O)COCCOCCOCCNC(=O)CCCCCCCCOc2ccnc(N3C[C@H]4C[C@@H]3CN4/C=C/C(=O)c3ccccc3O)c2)C(C)(C)C)cc1 [I-220] |  | > 1000 |
| Cc1ncsc1-c1ccc(CNC(=O)[C@@H]2C[C@@H](O)CN2C(=O)[C@@H](NC(=O)COCCOCCOCCOCCOCCOCCNC(=O)CCCCCCCCOc2ccnc(N3C[C@H]4C[C@@H]3CN4/C=C/C(=O)c3ccccc3O)c2)C(C)(C)C)cc1 [I-221] |  | > 1000 |
| Cc1ncsc1-c1ccc(CNC(=O)[C@@H]2C[C@@H](O)CN2C(=O)[C@@H](NC(=O)COCCOCCOCCOCCOCCNC(=O)CCCCCCCCOc2ccnc(N3C[C@H]4C[C@@H]3CN4/C=C/C(=O)c3ccccc3O)c2)C(C)(C)C)cc1 [I-222] |  | > 1000 |
| Cc1ncsc1-c1ccc(CNC(=O)[C@@H]2C[C@@H](O)CN2C(=O)[C@@H](NC(=O)COCCOCCOCCOCCNC(=O)CCCCCCCCOc2ccnc(N3C[C@H]4C[C@@H]3CN4/C=C/C(=O)c3ccccc3O)c2)C(C)(C)C)cc1 [I-223] |  | > 1000 |
| Cc1ncsc1-c1ccc(CNC(=O)[C@@H]2C[C@@H](O)CN2C(=O)[C@@H](NC(=O)COCCOCCOCCNC(=O)c2ccc(C(C)n3cc(-c4cc(-c5ccccc5O)nnc4N)cn3)cc2)C(C)(C)C)cc1 (stereo partly drawn) [I-224] |  | > 1000 |
| Cc1ncsc1-c1ccc(CNC(=O)[C@@H]2C[C@@H](O)CN2C(=O)[C@@H](NC(=O)COCCOCCOCCOCCOCCOCCNC(=O)c2ccc(C(C)n3cc(-c4cc(-c5ccccc5O)nnc4N)cn3)cc2)C(C)(C)C)cc1 (stereo partly drawn) [I-225] |  | > 1000 |
